{
  "source": "paper PMC6874683",
  "about": "“Pyrrothiogatain acts as an inhibitor of GATA family proteins and inhibits Th2 cell differentiation in vitro” (Scientific Reports, 2019)",
  "key": {"Jurkat cells": {"system": "Jurkat cells", "test": "MTS assay (cytotoxicity)", "type": "cell-based", "settings": "0 to 100 µM, 3 days", "experimental": "Jurkat cells were cultured at 37 °C with 5% CO2 in RPMI 1640 Medium (cat#72400047; Thermo Fisher) in the presence or absence of pyrrothiogatain (0 to 100 µM). Cell viability was measured using a CellTiter 96® AQueous One Solution Cell Proliferation Assay (cat#G3582; Promega) according to the manufacturer’s protocol."}, "Th2 cell differentiation": {"system": "Th2 cell differentiation", "test": "Intracellular cytokine staining, naive CD4+ T cells under Th2 conditions", "type": "cell-based, mouse", "settings": "30 and 80 µM, 5 days", "experimental": "(§1) C57BL/6 mice were purchased from Clea (Clea Japan, Inc., Tokyo, Japan). Total CD4^+ T cells isolated from mouse spleen were prepared using a FITC anti-mouse CD4 antibody (Cat#100510, RM4–5, BioLegend) and anti-FITC-microbeads (Cat#130-097-050, Miltenyi Biotec). Naive CD4^+ T cells (CD44^low, CD62L^high) were prepared using a MojoSort Mouse CD4 T cell Isolation Kit (Cat#480033), BioLegend). Biotinylated anti-CD44 (Cat#103004, IM7) and anti-CD25 antibodies (Cat#102004, PC61) were purchased from BioLegend. CD4^+ T cells (7.5 × 10^5) were stimulated using immobilized anti-TCR-β mAb (3 µg/mL, H57–597, BioLegend) plus an anti-CD28 mAb (1.0 µg/mL, cat#40–0281, TONBO Biosciences) for 2 days, and then, the cells were further expanded under similar conditions for an additional 3 days. IL-2 conditions: IL-2 (10 ng/mL, Pepro Tech); Th2 conditions: IL-2 (10 ng/mL, Pepro Tech), IL-4 (1 ng/mL, Pepro Tech), and anti-IFN-γ mAb (2.5 µg/mL, cat#40–731, TONBO Biosciences). […]\n(§2) The in vitro differentiated CD4^+ T cells were stimulated using an immobilized anti-TCR-β mAb (3 µg/ml, H57–597, BioLegend) for 6 h in the presence of monensin (2 µM). […] Flow cytometry was performed using a Gallios Flow Cytometer instrument (Beckman Coulter) and a FACS Caliber instrument (BD Biosciences) and the results were analysed using the FlowJo software program (Tree Star, Ashland, OR, USA)."}, "Th2 cytokines": {"system": "Th2 cytokines", "test": "ELISA of cytokine production, naive CD4+ T cells under Th2 conditions", "type": "cell-based, mouse", "settings": "30 and 80 µM, 5 days", "experimental": "(§3) C57BL/6 mice were purchased from Clea (Clea Japan, Inc., Tokyo, Japan). Total CD4^+ T cells isolated from mouse spleen were prepared using a FITC anti-mouse CD4 antibody (Cat#100510, RM4–5, BioLegend) and anti-FITC-microbeads (Cat#130-097-050, Miltenyi Biotec). Naive CD4^+ T cells (CD44^low, CD62L^high) were prepared using a MojoSort Mouse CD4 T cell Isolation Kit (Cat#480033), BioLegend). Biotinylated anti-CD44 (Cat#103004, IM7) and anti-CD25 antibodies (Cat#102004, PC61) were purchased from BioLegend. […]\n(§4) The CD4^+ T cells cultured for five days were stimulated using an immobilized anti-TCR-β mAb (3 µg/mL, H57–597, BioLegend) for 16 h, and the culture supernatants were recovered. The amount of cytokines in the recovered supernatants was determined with ELISA using the following antibodies and reagents: anti-IL-4 mAb (Cat#554387, BD Biosciences), biotin-anti-IL-4 mAb (Cat#554390, BD Biosciences), anti-IL-5 mAb (Cat#554393, BD Biosciences), biotin-anti-IL-5 mAb (Cat#554397, BD Biosciences), anti-IFN-γ mAb (Cat#551216, BD Biosciences), biotin-anti-IFN-γ mAb (Cat#554410, BD Biosciences), anti-IL-2 mAb (Cat#554424, BD Biosciences), biotin-anti-IL-2 mAb (Cat#554426, BD Biosciences), streptavidin horseradish peroxidase (Cat#434323, Invitrogen), and TMB peroxidase EIA substrate kit (Cat#1721066, BioRad). […]"}, "cytokine production": {"system": "cytokine production", "test": "ELISA of cytokine production, total CD4+ T cells under IL-2 conditions", "type": "cell-based, mouse", "settings": "30 µM, five days", "experimental": "as §3, §4"}, "Th1 cell differentiation": {"system": "Th1 cell differentiation", "test": "Th1 cell differentiation, naive CD4+ T cells under Th1 conditions", "type": "cell-based, mouse", "settings": "80 µM, five days", "experimental": "as §1, with “days.” for “days. IL-2 conditions: IL-2 (10 ng/mL, Pepro Tech); Th2 conditions: IL-2 (10 ng/mL, Pepro Tech), IL-4 (1 ng/mL, Pepro Tech), and anti-IFN-γ mAb (2.5 µg/mL, cat#40–731, TONBO Biosciences).”\nas §2, with “USA). […]” for “USA).”\n(B) Cytokine production induced in the pyrrothiogatain-treated Th1 cells shown in panel (A) was determined by ELISA."}},
  "data": [
    {"smiles": "Cc1ccc(C)n1-c1ccsc1C(=O)O", "note": "[Pyrrothiogatain, 3-(2,5-dimethyl-1H-pyrrol-1-yl)thiophene-2-carboxylic acid]", "values": [
      {"measurement": "Cell viability", "setting": "Jurkat cells", "result": "did not influence cell viability"},
      {"measurement": "Generation of IL-4-, IL-5-, and IL-13-producing Th2 cells", "setting": "Th2 cell differentiation", "result": "repressed"},
      {"measurement": "Production of IL-4, IL-5 and IL-13 (ELISA)", "setting": "Th2 cytokines", "result": "Decreased"},
      {"measurement": "Production of IFN-γ (ELISA)", "setting": "cytokine production", "result": "Increased"},
      {"measurement": "Production of IL-4, IL-5, IL-10, and IL-13 (ELISA)", "setting": "cytokine production", "result": "decreased"},
      {"measurement": "Generation of IFN-γ and IL-2 producing Th1 cells", "setting": "Th1 cell differentiation", "result": "modestly increased"}
    ]}
  ]
}
